Test results as given in PMC6787163, “Systematic Dual Targeting of Dendritic Cell C-Type Lectin Receptor DC-SIGN and TLR7 Using a Trifunctional Mannosylated Antigen” (Frontiers in Chemistry, 2019).
“Also recorded” adds a separate entry of the source. Like-named read-outs stand apart in the source and are kept apart here.

Tests used:
[1] = test system: moDCs co-cultured with gp100-specific T cells; test: Antigen presentation by moDCs to gp100-specific T cells (IFNγ ELISA); type: cell-based, human; details: 20 μM conjugate, 30 min pulse, overnight co-culture
Protocol: Lastly, antigen presentation was determined in a human T cell antigen presentation model (Figure 5D). In this assay, the potency of DCs to present the internalized gp100 antigen on the cell surface to gp100-specific T cells is analyzed. The IFNγ secretion of activated T cells upon recognition of the cell surface presented gp100 is measured. Day 5 moDCs were stimulated for 30 min, as the internalization was relatively fast, with the glycopeptides at the assay-optimized concentration of 20 μM (Supplementary Figure 1H). The constructs were washed away before overnight co-culture with gp100-specific T cells. […] The obstruction of antigen presentation was primarily seen with the B6-gp100-TLR7L contradicting the assumption that the best binding constructs will simultaneously maximize T cell activation. […]
Immature day 5 moDCs were seeded in 96-well plates (Greiner) at 50·10^3 cells/well and incubated with 20 μM of the different gp100-conjugates in the presence or absence of the TLR4 ligand LPS (10 ng/mL) or the TLR7 ligand Imiquimod (2.5 μg/mL). […] IFNγ in the supernatant was measured by sandwich ELISA according to the manufacturer's protocol (Biosource), and measured by spectrophotometric analysis on the iMarkTM Microplate Absorbance Reader (Bio-RAD) at 450 nm.

DC-SIGN S-ECD = target: T1, DC-SIGN S-ECD (Homo sapiens, UniProt Q9NNX6); test: SPR direct interaction assay on oriented DC-SIGN S-ECD surface; type: binding; details: for Kd: SPR direct interaction, oriented tetrameric DC-SIGN ECD surface, apparent Kd
T1 construct: The ECD of DC-SIGN (residues 66–404) was overexpressed and purified as previously described; made in house
T1 sequence (Q9NNX6 66-404): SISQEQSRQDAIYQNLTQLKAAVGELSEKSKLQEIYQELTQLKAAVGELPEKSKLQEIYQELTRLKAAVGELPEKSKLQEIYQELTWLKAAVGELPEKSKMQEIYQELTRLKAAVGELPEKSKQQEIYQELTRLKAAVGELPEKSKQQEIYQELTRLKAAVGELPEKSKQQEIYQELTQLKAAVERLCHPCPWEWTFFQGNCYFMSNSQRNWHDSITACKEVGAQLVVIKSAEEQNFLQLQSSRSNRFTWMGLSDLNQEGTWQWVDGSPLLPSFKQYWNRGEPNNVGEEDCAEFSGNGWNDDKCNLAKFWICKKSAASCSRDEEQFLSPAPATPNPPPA
Summary of the method: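 Tetrameric DC-SIGN ECD carrying an N-terminal StrepTagII was captured in oriented form on streptactin (2,500–3,000 RU), with a streptactin-only control cell. Glycoclusters were injected at increasing concentrations (30 μL/min) in Tris pH 8 buffer with 150 mM NaCl and 4 mM CaCl2. Apparent Kd from a 1:1 fit reflects binding to the whole surface.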

moDCs = test: Internalization of biotinylated hexavalent clusters by moDCs (flow cytometry); type: cell-based, human
Summary of the method: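 Immature day-5 moDCs (half gently pre-fixed with 1% PFA) loaded with 20 μM biotinylated clusters for 1 h on ice, washed, then shifted to 37°C; samples taken at time points. Surface retention read by Streptavidin-Alexa647 flow cytometry; parallel run used clusters pre-complexed with pHrodo-Avidin (2:1, 15 min, 37°C).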

DC-SIGN on moDC = test: Binding of biotinylated mannoside library to moDCs by flow cytometry; type: cell-based, human; details: 10 μM biotinylated cluster, 30 min at 4°C, streptavidin staining
Protocol: Next, we assessed the binding of our clusters to cellular DC-SIGN using moDCs (Figure 3B, Supplementary Figure 1B). To this end, binding of the clusters a1–a6, b1–b6, c1–c6, d1–d6, and e1–e6, decorated with a biotin handle, was determined by flow cytometry. Clusters were bound to moDCs for 30 min at 4°C. By staining using fluorophore-conjugated streptavidin and washing at 4°C, the bound clusters could be quantified by flow cytometry. […] In control experiments ligand binding to DC-SIGN was inhibited using a blocking anti-DC-SIGN antibody (Supplementary Figure 1C).
Approximately 10^5 day 5 moDCs were washed and resuspended in 100 μL culture medium (pre-cooled to 4°C). 20 μg/mL AZN-D1 (anti-DC-SIGN, in house Geijtenbeek et al., [2002]) or purified mouse anti-human CD206 antibody (Clone 19.2, BD Bioscience) was added to the moDCs and pre-incubated for 45 min on ice. Subsequently, 10 μM of the biotinylated mannoside clusters or 1 μg/mL of Lewis^Y-conjugated polyacrylamide (positive control) was added, and incubated for 30 min at 4°C. Cells were then washed with pre-cooled PBS (4°C), and stained with Alexa647-labeled streptavidin (Invitrogen^TM) in PBS supplemented with 0.5% BSA and 0.02% NaN3 (PBA) for 30 min at 4°C. Upon washing in ice-cold PBA and fixation in PBS with 0.5% PFA, the fluorescence was measured by flow cytometry (CyAn™ ADP with Summit™ Software), and further analyzed using FlowJo v10.

Kd (DC-SIGN S-ECD; read-out: Kdapp)	binding to DC-SIGN on moDC (DC-SIGN on moDC)	Compound	antigen presentation (IFNγ release of activated gp100-specific T cells) [1]	decrease of DC-SIGN affinity on conjugation to gp100 or gp100-TLR7L (factor) (DC-SIGN S-ECD; Kd-app of conjugate vs unconjugated cluster)	Kd (DC-SIGN S-ECD; Kdapp)	internalization by moDCs (loss of surface streptavidin signal) (moDCs; 20 μM cluster, live moDCs)	internalization by moDCs (pHrodo-avidin fluorescence increase) (moDCs; clusters pre-complexed with pH-sensitive dye)	uptake by immature moDCs (moDCs; within 5 min at 37°C, 20 μM cluster)
		CCCCOc1nc(N)c2[nH]c(=O)n(Cc3ccc(C(=O)NCCOCCOCC(=O)NCCCC[C@H](NC(=O)CNC(=O)[C@H](CCCNC(=N)N)NC(=O)[C@H](Cc4c[nH]c5ccccc45)NC(=O)[C@H](CC)NC(=O)[C@H](CC(=O)O)NC(=O)[C@H](CC(C)C)NC(=O)[C@H](CCCNC(=N)N)NC(=O)[C@H](CCC(N)=O)NC(=O)[C@H](C)NC(=O)[C@H](CCC(=O)O)NC(=O)[C@@H](NC(=O)[C@H](Cc4c[nH]c5ccccc45)NC(=O)[C@H](CCC(=O)O)NC(=O)[C@@H]4CCCN4C(=O)[C@H](Cc4ccc(O)cc4)NC(=O)[C@H](CC(C)C)NC(=O)[C@H](CCC(N)=O)NC(=O)[C@H](CCCNC(=N)N)NC(=O)[C@H](CC(N)=O)NC(=O)[C@H](C)NC(=O)[C@@H](NC(=O)[C@@H](NC(=O)[C@@H]4CCCN4C(=O)CNC(=O)[C@@H]4CCCN4C(=O)[C@H](CCC(=O)O)NC(=O)[C@H](CC(C)C)NC(=O)[C@H](Cc4ccc(O)cc4)NC(=O)[C@@H](NC(=O)[C@H](Cc4c[nH]cn4)NC(=O)[C@@H](NC(=O)[C@@H](NC(=O)[C@H](CCCCn4cc(CCC(=O)NCCCC[C@H](NC(=O)CNC(=O)[C@H](CCCCn5cc(CO[C@H]6O[C@H](CO[C@H]7O[C@H](CO)[C@@H](O)[C@H](O)[C@@H]7O)[C@@H](O)[C@H](O[C@H]7O[C@H](CO)[C@@H](O)[C@H](O)[C@@H]7O)[C@@H]6O)nn5)NC(=O)[C@H](CCCCn5cc(CO[C@H]6O[C@H](CO[C@H]7O[C@H](CO)[C@@H](O)[C@H](O)[C@@H]7O)[C@@H](O)[C@H](O[C@H]7O[C@H](CO)[C@@H](O)[C@H](O)[C@@H]7O)[C@@H]6O)nn5)NC(=O)[C@H](CCCCn5cc(CO[C@H]6O[C@H](CO[C@H]7O[C@H](CO)[C@@H](O)[C@H](O)[C@@H]7O)[C@@H](O)[C@H](O[C@H]7O[C@H](CO)[C@@H](O)[C@H](O)[C@@H]7O)[C@@H]6O)nn5)NC(=O)[C@H](CCCCn5cc(CO[C@H]6O[C@H](CO[C@H]7O[C@H](CO)[C@@H](O)[C@H](O)[C@@H]7O)[C@@H](O)[C@H](O[C@H]7O[C@H](CO)[C@@H](O)[C@H](O)[C@@H]7O)[C@@H]6O)nn5)NC(=O)[C@H](CCCCn5cc(CO[C@H]6O[C@H](CO[C@H]7O[C@H](CO)[C@@H](O)[C@H](O)[C@@H]7O)[C@@H](O)[C@H](O[C@H]7O[C@H](CO)[C@@H](O)[C@H](O)[C@@H]7O)[C@@H]6O)nn5)NC(=O)[C@H](CCCCn5cc(CO[C@H]6O[C@H](CO[C@H]7O[C@H](CO)[C@@H](O)[C@H](O)[C@@H]7O)[C@@H](O)[C@H](O[C@H]7O[C@H](CO)[C@@H](O)[C@H](O)[C@@H]7O)[C@@H]6O)nn5)NC(C)=O)C(N)=O)nn4)NC(C)=O)C(C)C)[C@@H](C)O)[C@@H](C)O)C(C)C)[C@@H](C)O)[C@@H](C)O)C(N)=O)cc3)c2n1 [E6-gp100-TLR7L]	increased T cell activation; also recorded: strongest antigen presentation	about 10	31 µM			
6.56 ± 1.2 µM	no increase in binding	CC(=O)N[C@@H](CCCCn1cc(CO[C@H]2O[C@H](CO[C@H]3O[C@H](CO)[C@@H](O)[C@H](O)[C@@H]3O)[C@@H](O)[C@H](O)[C@@H]2O)nn1)C(=O)N[C@@H](CCCCn1cc(CO[C@H]2O[C@H](CO[C@H]3O[C@H](CO)[C@@H](O)[C@H](O)[C@@H]3O)[C@@H](O)[C@H](O)[C@@H]2O)nn1)C(=O)N[C@@H](CCCCn1cc(CO[C@H]2O[C@H](CO[C@H]3O[C@H](CO)[C@@H](O)[C@H](O)[C@@H]3O)[C@@H](O)[C@H](O)[C@@H]2O)nn1)C(=O)N[C@@H](CCCCn1cc(CO[C@H]2O[C@H](CO[C@H]3O[C@H](CO)[C@@H](O)[C@H](O)[C@@H]3O)[C@@H](O)[C@H](O)[C@@H]2O)nn1)C(=O)N[C@@H](CCCCn1cc(CO[C@H]2O[C@H](CO[C@H]3O[C@H](CO)[C@@H](O)[C@H](O)[C@@H]3O)[C@@H](O)[C@H](O)[C@@H]2O)nn1)C(=O)N[C@@H](CCCCn1cc(CO[C@H]2O[C@H](CO[C@H]3O[C@H](CO)[C@@H](O)[C@H](O)[C@@H]3O)[C@@H](O)[C@H](O)[C@@H]2O)nn1)C(=O)NCC(=O)N[C@@H](CCCCN)C(N)=O [D6]				rapidly internalized	internalized rapidly	50%
